Measurements: patent US20150343016A1, “CHEMICAL ENTITIES AND THERAPEUTIC USES THEREOF” (The Regents of the University of Colorado, a body corporate, priority 2010, published 2015)
Entries after “also recorded” stand apart in the source; their conditions may differ.

Assays:
[1] = tested on: H157 cells; experiment: MTT assay, Bouvardin with ionizing radiation, H157; type: cell-based, human
Method: (§1) “Combination Index” computation. Combination Indices were calculated using CalcuSyn software (Biosoft), which uses the method of Chou and Talalay. This method first computes drug-induced effect using the Hill Equation: where E is the measured effect; C is the drug concentration; Emax is the full range of drug effect, usually at or near 100%; IC50 is the drug concentration producing the median effect of 50%; and n is the curve shape parameter describing the steepness of the concentration-effect relationship. The Chou and Talalay method then linearizes the Hill Equation by logarithmic transformation as: where fu is the fraction of cells left unaffected after drug exposure, fa is the fraction of cells affected by the exposure, C is the drug concentration used, Cm is the concentration to achieve the median effect, and n is the curve shape parameter. Cm and n are equivalent to IC50 and n, respectively, in the Hill Equation. The values of n (obtained from the slope), nlog(Cm) (obtained from the absolute value of the intercept), and, therefore, Cm are obtained by plotting log(fu−1−1) versus log(C). These numbers are then used to compute the Combination Index (CI) according to the formula: CI=(D)1/(Dx)1+(D)2/(Dx)2 (26). (Dx)1 and (Dx)2 are the doses required to achieve a given effect level for each treatment, i.e. a specified value of Fraction Affected or Fa. (D)1 and (D)2 are the doses of each treatment in a given combination which gives the same Fa.
In FIG. 16 MTT assays were used to determine the effect of Bouvardin in combination with IR. Cells were either treated with drug for 24 hr prior to irradiation (A and C, ‘pre-treatment’) or drug and radiation were applied on the same day (B and D, ‘same day treatment’). (A & B) Fraction of cells killed or otherwise eliminated (Fraction Affected) at different doses of Bouvardin and 0 or 2 Gy of IR. (C & D) Combination Index (CI) data from two experiments with pre-treatment protocol, to illustrate reproducibility. CIs below 1 indicate synergy.
In the absence of radiation, the drug has an IC50 (Fraction Affected, Fa=0.5) in the nM range ([…], ‘0 Gy’). Fraction Affected is determined by the formula, 1−(x/y), where x is the MTT signal for the experimental sample and y is the MTT signal for the un-treated control. For example, if the MTT signal in the experimental is 30% of the MTT signal in the control, fraction affected is 0.7. Radiation increased the Fa in a dose-dependent manner in the absence of drug. The addition of the drug further increased the Fa for each dose of radiation. This happened whether the drug was added 24 hr before irradiation (pre-treatment, FIGS. 16A,C) or concurrently (same day treatment, FIGS. 16B,D).
The efficiency of Bouvardin in increasing the effect of radiation on cancer cells is measured in terms of Combination Index (CI) as determined by CalcuSyn software according to the method of Chou and Talalay. This method is widely used in biomedical literature and it has been applied to combinations of antitumor drugs. CI values are calculated from Fa values for multiple drug and radiation doses such as those shown in FIGS. 16 A and B. CI computation takes into account the shape of the dose-response curve, the maximal effect, the intercept, and the IC50 values for drug at each dose of radiation and IC50 for radiation at each dose of drug. […]
The growth inhibitory effects of Bouvardin with ionizing radiation (IR) were evaluated using a modified tetrazolium salt (MTT) assay. […]

[2] = tested on: FaDu cells; experiment: MTT assay, Bouvardin with ionizing radiation, FaDu (same-day treatment); type: cell-based, human
Method: as §1
For FIG. 19 MTT assays were used to determine the effect of Bouvardin (concentrations in uM) in combination with ionizing radiation (in Gy). The data from same-day treatment of IR and Bouvardin are shown, for comparison with taxol-Bouvardin combination that were also applied on the same day. In general, CI values were lower for FaDu cells than for Det562 cells in two separate experiments (only one set is shown). On Det562 cells, CI values were about 1 for most combinations. CI value for Det562 cells at 0.001 uM/1Gy and at >0.06 uM are not included in the graph because the values are >10 and would have made smaller values harder to see. On FaDu cells, CI values were below 1 at concentrations of 0.03 or lower, were about 1 for 0.06 uM drug, and were over 1 at higher concentrations.
The growth inhibitory effects of Bouvardin with ionizing radiation (IR) were evaluated using a modified tetrazolium salt (MTT) assay. In the MTT assay, 1,000 to 2,000 viable cells were plated in 100 uL of growth medium in 96-well plates (Corning, Ithaca, N.Y.). Following an overnight incubation, drug was added in varying concentrations and the plates were irradiated on the same day (co-treatment) or 24 hr later (pre-treatment) and incubated for 6 to 7 days. The tetrazolium salt was added at a concentration of 0.4 mg/mL to each well following the 6- to 7-day treatment. The plates were incubated with the salt for 4 hours at 37° C. At 4 hours, the medium was aspirated off, leaving the dark blue formazan product at the bottom of the wells. The reduced MTT product was solubilized by adding […] of 0.2 N HCl in 75% isopropanol, 23% MilliQ water to each well. Thorough mixing was done using a Titertek multichannel pipetman. The absorbency of each well was measured using an automated plate reader (Molecular Devices, Sunnyvale, Calif.). All experiments were done in triplicate.

Structure (SMILES): COc1ccc(C[C@H]2C(=O)N[C@H](C)C(=O)N(C)[C@@H]3C(=O)N(C)[C@@H](Cc4ccc(O)c(c4)Oc4ccc(cc4)[C@H]3O)C(=O)N[C@@H](C)C(=O)N[C@H](C)C(=O)N2C)cc1 (stereo in doubt) [Bouvardin, bouvardin]
- interaction with radiation in cell-based assays ([1]; 0.3 μM of drug): synergistically
- interaction with radiation in cell-based assays ([1]; 0.6 μM of drug): additively/antagonistically
- interaction of Bouvardin with radiation ([1]; H157): synergy over a wide range of doses; also recorded: synergize
- IC50 (Fraction Affected, Fa=0.5) ([1]; H157, in the absence of radiation (0 Gy)): nM range
- interaction of Bouvardin with radiation ([1]; H157, listed as bouvardin): synergizes with ionizing radiation
- Bouvardin concentrations at which synergy was seen when combined with radiation ([2]; Det562 and FaDu (FIG. 19)): lower than 0.06 μM
- interaction of Bouvardin with IR ([2]; FaDu): a wide range of effects, synergistic to antagonistic
- CI values, Bouvardin with IR ([2]; FaDu, 0.06 uM drug): about 1
- CI values, Bouvardin with IR ([2]; FaDu, concentrations higher than 0.06 uM): over 1
- CI values, Bouvardin with IR ([2]; FaDu, concentrations of 0.03 or lower): below 1
